# Test: gradient 5% acetonitrile 3 min, to 50% in 2 min, to 85% in 15 min, held 3 min, 100 µL/min
# Conditions: column: Zorbax Extend-C18 2.1 x 50 mm; eluents: water / acetonitrile, 0.1% formic acid
# Procedure, shortened: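 A Zorbax Extend-C18 column (2.1 × 50 mm, 1.8 μm) run at 100 μL/min with water and acetonitrile, both containing 0.1% formic acid, separated mixtures of ~100 pure standards. The HPLC was coupled to a quadrupole time-of-flight mass spectrometer operated in positive and negative ionization mode, with dead and dwell volumes of 40 μL and 900 μL. Each retention time was taken from a computationally picked adduct peak that was then manually inspected.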
row,RP-LC retention time,Compound
1,885 s,COc1ccccc1-c1nnc(-c2cccc(S(=O)(=O)N3CCCC3)c2)o1
2,635 s,CCCNC(=O)c1cc(=O)[nH]c2ccc(F)cc12
3,893 s,COc1ccc(-c2csc(NC(=O)CS(=O)(=O)c3ccc(C)cc3)n2)cc1OC
4,1110 s,Cc1ccc(N2CCN(S(=O)(=O)c3cc(-c4nnc(C5CCC5)o4)co3)CC2)cc1
5,935 s,O=C(Nc1ccc(F)cc1)c1ccc(Br)s1
6,1010 s,C=CCN1C(=O)COc2ccc(-c3nc(NC(=O)c4ccccc4Cl)sc3C)cc21
7,804 s,CCn1c(SC)nnc1-c1nn(C)c2c1CN(C(=O)c1ccc(F)c(F)c1)CC2
8,996 s,Cc1nn(-c2ccc(-c3ccccc3)nn2)c(C)c1S(=O)(=O)N1CCCC1
9,786 s,CC(C)CCNc1ccc2nncn2n1
10,812 s,COc1ccc(Cl)cc1C(=O)N1CCN(c2cc(-c3cccs3)[nH]n2)CC1
11,733 s,Cc1ccc(CNC2=NCCNC23CCN(S(=O)(=O)c2ccc(F)cc2)CC3)cc1
12,686 s,COc1ccccc1N1CCN(C(=O)C2CC(=O)N(c3n[nH]c4cccc(F)c34)C2)CC1 (stereo unspecified)
13,891 s,O=c1c2nc(-c3ccc(Cl)cc3)cn2ccn1-c1ccc(F)c(F)c1
14,880 s,COc1ccc(Cl)cc1NC(=O)C1CCN(S(=O)(=O)c2ccc3c(c2)NC(=O)CO3)CC1
15,791 s,COc1cc(CNC(=O)c2c(N3CCCC3=O)c3cc(F)ccc3n2C)cc(OC)c1OC
16,774 s,Cc1ccc(CSc2ncnc3nc[nH]c23)cc1
17,1180 s,CC(C)(C)c1csc(-c2csc(S(=O)(=O)Nc3ccccc3)c2)n1
18,852 s,COC(=O)c1cn(CC(=O)NCc2ccc3c(c2)OCCCO3)c2ccccc12
19,696 s,Cc1ccc(-c2ccc(N3CCCC(C(=O)NC4CCCC4)C3)nn2)cc1 (stereo unspecified)
20,662 s,Cc1sc2ccn(Cc3ccc(F)cc3)c(=O)c2c1C(=O)NCCN1CCCC1
21,788 s,COc1cccc2cc(C(=O)N3CC(c4nc(C5CC5)no4)C3)oc12
22,765 s,Cc1noc2nc(CCC(=O)NCCCc3ccccc3)nc(N3CCCC3)c12
23,600 s,Cc1noc(-c2nn(C)c3c2CN(C(=O)C2CCCO2)CC3)n1 (stereo unspecified)

row,RP-LC retention time,Compound
1,754 s,Cc1sc(NC(=O)c2cccnc2)nc1-c1ccc2c(c1)N(C)C(=O)CO2
2,775 s,CO[C@H]1C(=O)N(C(C)C)[C@H]1C1CCN(S(=O)(=O)c2cccc3cccnc23)CC1
3,600 s,CCCNC(=O)CCC1CCN(c2cc(NC3CC3)ncn2)CC1
4,668 s,COc1ccc(NC(=O)Nc2c(-c3ccc(F)cc3)nc3ccccn23)cc1F
5,834 s,Cc1cc(C)cc(NC(=O)C2CCN(S(=O)(=O)c3ccc4c(c3)CCCC(=O)N4)CC2)c1
6,625 s,CC(=O)NCC(=O)N1CCCn2ccnc2C1C1CCCC1 (stereo unspecified)
7,612 s,Cc1noc([C@@H]2CN(CCCc3ccccc3)C[C@H]2CO)n1
8,649 s,Cc1ccc(C(=O)NC2CCN(c3cc(N4CCCC4)cnn3)C2)s1 (stereo unspecified)
9,573 s,Cc1occc1C(=O)N[C@@H]1CN(S(C)(=O)=O)C[C@H]1CN(C)C
10,1140 s,CCc1cc(C(=O)Nc2cc(C)cc(C)c2)nc2ccnn12
11,678 s,O=C(Cn1c(=O)oc2ccccc21)NCC12CCCC=C1NC(=O)CC2 (stereo unspecified)
12,942 s,CC(C)(C)c1noc(Cc2nnc(-c3ccc(F)cc3)o2)n1
13,962 s,CC1CCN(S(=O)(=O)c2ccc3nc(N4CCN(c5ccccc5)CC4)ccc3c2)CC1
14,598 s,CCOCC(=O)N1CCC2(CCC2O)CC1 (stereo unspecified)
15,720 s,CCOC(=O)CNC(=O)N1CCc2nc(-c3ccccc3)ncc2C1
16,971 s,CCCNS(=O)(=O)c1cccc(-c2nnc(-c3ccc(C)cc3)o2)c1
17,836 s,COc1cc(OC)c(NC(=O)NCCCn2c(C(F)(F)F)nc3cccnc32)cc1Cl
18,675 s,Cn1nc2n(c1=O)CCN(S(=O)(=O)c1ccccc1C(F)(F)F)CC2
19,982 s,CS(=O)(=O)Nc1ccc([N+](=O)[O-])cc1OC1CCCCC1
20,972 s,COc1ccc(C(=O)N2CCc3cc(-c4csc(C)n4)ccc32)cc1
21,727 s,COCCNC(=O)CN1c2ccccc2NC2=C(C(=O)CC(C)(C)C2)C1c1cccs1 (stereo unspecified)
22,666 s,CCN(CC)CCNC(=O)C1CCN(C2=NS(=O)(=O)C(c3ccc(C)c(C)c3)=C2C)CC1
23,714 s,COc1ccc(-c2nc3cc(C)ccn3c2NC(=O)COc2ccc(Cl)cc2)cc1OC

row,RP-LC retention time,Compound
1,686 s,CCCNc1cc(N2CCC(CCC(=O)NCc3ccc(F)cc3)CC2)ncn1
2,924 s,N#CCCSc1ccccc1NC(=O)c1ccc(C(=O)c2ccccc2)cc1
3,653 s,CCOC(=O)c1cccc(Nc2c(C(=O)N3CCCC(C)C3)cnc3nc(C)ccc23)c1 (stereo unspecified)
4,733 s,Cc1ccccc1Nc1c(-c2ccccc2)nc2c(C)cccn12
5,940 s,COc1ccc(C)cc1NC(=O)N1CCCC1c1nc(-c2ccccc2OC)no1 (stereo unspecified)
6,681 s,CCOCCCNC(=O)CN1C(=O)CCCc2ccccc21
7,800 s,CCOC(=O)C1CCCN(C(=O)CCCOc2cc(=O)n(C)c3ccccc23)C1 (stereo unspecified)
8,747 s,Cc1cc(Nc2nc3ccncc3n(Cc3ccccc3)c2=O)ccc1Cl
9,782 s,O=C(Nc1ccc(Br)cc1)C1CC(=O)N(c2n[nH]c3cccc(F)c23)C1 (stereo unspecified)
10,703 s,Cc1ccc(C(O)CN2CCN(c3ccccc3)CC2)c(C)c1 (stereo unspecified)
11,959 s,O=C(Nc1ccc(N2CCOCC2)c(Br)c1)c1ccc2c(c1)OCCCO2
12,750 s,O=C(Nc1cccc(-c2ccc(N3CCOCC3)nn2)c1)Nc1ccccc1C(F)(F)F
13,618 s,Cc1ccc(F)cc1S(=O)(=O)N[C@@H]1CN(c2ncccn2)C[C@H]1CN(C)C
14,670 s,O=C(NCC1CCOCC1)Nc1ccc(F)cc1
15,806 s,Cc1nnsc1C(=O)N1CCC(CNC(=O)C(C)(C)Oc2ccc(Cl)cc2)CC1
16,846 s,Cc1nc(-c2ccc(OC3CCN(C(=O)c4[nH]nc5c4COc4ccccc4-5)C3)cc2)no1 (stereo unspecified)
17,804 s,Cc1nc2nc(C)c(CCC(=O)N3CCC(Cc4ccccc4)CC3)c(C)n2n1
18,941 s,CCOC(=O)c1nc(N(CC)c2ccc(OC)cc2)c2ccccc2n1
19,654 s,CCN1CCN(C(=O)c2csc(N3CCN(c4ccc(OC)cc4)CC3)n2)CC1
20,964 s,COc1ccc(-c2cc(C(=O)N3CCCC3c3cc(C)on3)no2)cc1 (stereo unspecified)
21,610 s,COc1cccc(N2CCN(Cc3nc4nc(C)cc(N(C)C)n4n3)CC2)c1
22,560 s,CCc1[nH]nc(S(=O)(=O)N2CCN(c3ccccn3)CC2)c1C(=O)OC
23,754 s,Cc1ccc2c(c1)C1CC(C)(O2)N(c2cccc(C(=O)N3CCCC3)c2)C(=O)N1 (stereo unspecified)

row,RP-LC retention time,Compound
1,584 s,CS(=O)(=O)N1CCCC1C(=O)N1CCCC1 (stereo unspecified)
2,695 s,O=C(c1ccc(Br)o1)N1CCN=C1N1CCN(c2ccccc2F)CC1
3,619 s,Cn1cc(-c2cc3n(n2)CCC(=O)N3CCCC(=O)N2CCN(c3ccccn3)CC2)c2ccccc21
4,979 s,O=C(Nc1cnc(-c2ccccc2)nc1)c1ccc(Br)o1
5,604 s,CCC(=O)N1CCc2sc(C(=O)NC3CCN(Cc4ccccc4)CC3)cc2C1
6,880 s,CCc1nnc(-c2cn(CC(=O)NCc3ccc(SC)cc3)c3ccccc23)o1
7,706 s,Cc1c(Cl)cccc1NC(=O)NCC(c1cccnc1)c1c[nH]c2ccccc12 (stereo unspecified)
8,735 s,Cc1ccn2c(NC(=O)c3cc(Br)ccc3Cl)c(-c3ccccc3)nc2c1
9,669 s,O=C(NCCn1nc(-n2cccn2)ccc1=O)c1cc2ccccc2o1
10,617 s,O=C(O)c1nc(N2CCCC2)c2oc3ccccc3c2n1
11,1170 s,CCc1nc(-c2ccc(-c3noc(-c4ccco4)n3)cc2)cs1
12,604 s,O=C(C1CCN(c2ccc3nncn3n2)CC1)N1CCN(c2ncccn2)CC1
13,1030 s,CCC(=O)N1CCc2c(-c3ccccc3)cccc2[C@H]1C
14,691 s,Cc1nc2cc(-c3noc(-c4ccc(C#N)cc4)n3)ccc2n(C2CCCC2)c1=O
15,811 s,CCc1nnc(-c2ccc3ccn(CC(=O)Nc4ccc5c(c4)OCCO5)c3c2)o1
16,853 s,O=C(Nc1ccc2c(c1)OCCO2)N1CC(c2nc(CCOCc3ccccc3)no2)C1
17,596 s,COc1cccc(CN2CCC3(CC2)c2[nH]c4ccccc4c2CCN3C)c1
18,900 s,CC1CCN(C(=O)C2c3ccccc3CCN2CC(=O)NCc2ccccc2)CC1 (stereo unspecified)
19,608 s,Cc1cc(N2CCN(C(=O)c3ccc(F)cc3)CC2)nc(N2CCOCC2)n1
20,896 s,Cc1ccc(S(=O)(=O)N2CCCC2CNC(=O)c2ccc(F)c(F)c2)cc1 (stereo unspecified)
21,916 s,COc1cc(OC)cc(-c2noc(-c3nn(-c4ccc(C)cc4)ccc3=O)n2)c1

row,Compound,RP-LC retention time
1,CCn1cc(C(=O)Nc2ccc(F)cc2)c2cccnc21,824 s
